Laboratory results taken from ChEMBL document CHEMBL4622974, “Leveraging an Open Science Drug Discovery Model to Develop CNS-Penetrant ALK2 Inhibitors for the Treatment of Diffuse Intrinsic Pontine Glioma” (J Med Chem, 2020).

Assays:
Activin receptor type-1 [1] = biological target: T1, Activin receptor type-1 (Homo sapiens, UniProt Q04771); assay: Inhibition of human ALK2 using casein as substrate in presence of [gamma-33P]-ATP by radiometric hotspot assay
T1 sequence (Q04771 whole entry): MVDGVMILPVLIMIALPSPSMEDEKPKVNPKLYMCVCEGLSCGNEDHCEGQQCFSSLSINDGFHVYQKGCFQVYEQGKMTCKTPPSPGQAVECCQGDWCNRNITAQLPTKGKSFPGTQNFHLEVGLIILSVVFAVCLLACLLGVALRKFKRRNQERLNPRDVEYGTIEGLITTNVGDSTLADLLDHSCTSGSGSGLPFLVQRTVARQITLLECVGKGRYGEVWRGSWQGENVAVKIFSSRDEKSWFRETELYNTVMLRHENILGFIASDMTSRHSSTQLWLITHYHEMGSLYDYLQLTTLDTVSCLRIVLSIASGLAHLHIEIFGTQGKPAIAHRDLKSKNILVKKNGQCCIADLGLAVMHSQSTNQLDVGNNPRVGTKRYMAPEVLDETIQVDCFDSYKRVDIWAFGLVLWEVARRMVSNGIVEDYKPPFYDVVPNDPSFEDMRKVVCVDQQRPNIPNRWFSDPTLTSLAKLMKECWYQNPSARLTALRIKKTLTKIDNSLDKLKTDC

TGF-beta receptor type-1 [2] = biological target: T2, TGF-beta receptor type-1 (Homo sapiens, UniProt P36897); assay: Inhibition of recombinant human ALK5 expressed in HEK293 cells transfected with CAGA-luciferase and Renilla luciferase reporter after 24 hrs by dual luciferase reporter assay; type: cell-based
T2 sequence (P36897 whole entry): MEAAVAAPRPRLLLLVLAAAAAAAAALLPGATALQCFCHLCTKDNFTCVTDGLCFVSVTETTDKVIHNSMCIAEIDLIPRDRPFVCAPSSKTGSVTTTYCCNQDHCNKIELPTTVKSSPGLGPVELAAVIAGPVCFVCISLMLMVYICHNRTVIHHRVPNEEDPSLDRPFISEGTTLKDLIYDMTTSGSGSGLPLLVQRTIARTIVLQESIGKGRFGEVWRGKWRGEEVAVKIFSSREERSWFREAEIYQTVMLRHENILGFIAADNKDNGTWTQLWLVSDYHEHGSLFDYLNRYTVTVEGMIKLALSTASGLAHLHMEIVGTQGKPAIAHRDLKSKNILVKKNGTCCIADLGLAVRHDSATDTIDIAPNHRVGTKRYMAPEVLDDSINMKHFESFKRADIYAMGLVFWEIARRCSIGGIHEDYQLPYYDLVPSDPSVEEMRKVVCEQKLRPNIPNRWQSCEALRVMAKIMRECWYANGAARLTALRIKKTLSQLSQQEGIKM

[3] = biological target: Voltage-gated inwardly rectifying potassium channel KCNH2 (Homo sapiens, UniProt Q12809); assay: Inhibition of human ERG expressed in HEK293 cells after 5 mins by IonWorks barracuda patch clamp method; type: cell-based
Chain of Voltage-gated inwardly rectifying potassium channel KCNH2 (Q12809 whole entry): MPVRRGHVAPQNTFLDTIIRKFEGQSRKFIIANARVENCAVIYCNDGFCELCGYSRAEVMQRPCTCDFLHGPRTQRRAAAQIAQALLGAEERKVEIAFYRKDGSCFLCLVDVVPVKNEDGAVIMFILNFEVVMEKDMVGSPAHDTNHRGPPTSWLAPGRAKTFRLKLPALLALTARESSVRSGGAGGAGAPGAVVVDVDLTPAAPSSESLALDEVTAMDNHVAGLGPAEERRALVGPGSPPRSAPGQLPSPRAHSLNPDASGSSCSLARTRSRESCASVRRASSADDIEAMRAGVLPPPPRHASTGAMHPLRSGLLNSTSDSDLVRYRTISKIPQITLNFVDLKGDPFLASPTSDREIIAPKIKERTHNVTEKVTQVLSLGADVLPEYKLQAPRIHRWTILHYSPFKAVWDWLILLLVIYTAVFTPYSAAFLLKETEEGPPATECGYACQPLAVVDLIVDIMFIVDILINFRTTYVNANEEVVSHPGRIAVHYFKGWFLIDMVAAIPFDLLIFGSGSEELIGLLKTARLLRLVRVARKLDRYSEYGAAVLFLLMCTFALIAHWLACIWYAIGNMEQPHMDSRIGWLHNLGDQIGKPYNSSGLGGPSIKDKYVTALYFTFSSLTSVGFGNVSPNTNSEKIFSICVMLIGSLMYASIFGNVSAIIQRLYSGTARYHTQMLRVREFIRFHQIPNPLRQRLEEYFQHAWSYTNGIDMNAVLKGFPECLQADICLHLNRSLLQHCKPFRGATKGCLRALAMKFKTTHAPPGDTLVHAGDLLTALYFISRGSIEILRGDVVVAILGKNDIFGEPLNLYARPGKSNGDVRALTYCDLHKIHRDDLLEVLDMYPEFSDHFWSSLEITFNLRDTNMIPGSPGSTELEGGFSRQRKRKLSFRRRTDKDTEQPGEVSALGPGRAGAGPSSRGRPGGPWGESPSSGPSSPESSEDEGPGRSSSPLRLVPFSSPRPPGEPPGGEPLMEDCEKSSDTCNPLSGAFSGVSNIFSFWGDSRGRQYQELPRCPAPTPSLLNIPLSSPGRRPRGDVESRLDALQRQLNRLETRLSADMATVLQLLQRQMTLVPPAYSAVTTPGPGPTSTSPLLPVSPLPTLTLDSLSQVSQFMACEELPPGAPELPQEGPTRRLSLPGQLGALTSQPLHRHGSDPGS

TGF-beta receptor type-1 [4] = biological target: T2, TGF-beta receptor type-1; assay: Inhibition of human ALK5 using casein as substrate in presence of [gamma-33P]-ATP by radiometric hotspot assay; type: ADME
Activin receptor type-1 [5] = biological target: T1, Activin receptor type-1; assay: Competitive displacement of PBI-6908 from nanoluciferase-fused ALK2 (unknown origin) expressed in HEK293 cells incubated for 2 hrs by NanoBRET NanoGlo substrate based NanoBRET assay; type: cell-based
[6] = Ratio of drug level in brain to plasma in CB17 SCID mouse at 50 mg/kg, po measured at 4 h; type: ADME, organism-based; conditions: read-out: BPR
[7] = Toxicity in C57BL/6 mouse assessed as body weight loss at 25 mg/kg, po BID administered for 5 days measured after 24 hrs relative to control; type: organism-based; conditions: in vivo
[8] = Mutagenicity in Salmonella typhimurium by mini Ames test; type: toxicity; conditions: salmonella enterica subsp. enterica serovar typhimurium
[9] = Unbound brain-to-plasma concentration ratio in CD-1 mouse plasma at 1 mg/kg, iv measured at 2 hrs; type: ADME, organism-based; conditions: read-out: K(p,uu,brain)
[10] = biological target: Serine/threonine-protein kinase NLK (Homo sapiens, UniProt Q9UBE8); assay: Inhibition of NLK (unknown origin)
Chain of Serine/threonine-protein kinase NLK (Q9UBE8 whole entry): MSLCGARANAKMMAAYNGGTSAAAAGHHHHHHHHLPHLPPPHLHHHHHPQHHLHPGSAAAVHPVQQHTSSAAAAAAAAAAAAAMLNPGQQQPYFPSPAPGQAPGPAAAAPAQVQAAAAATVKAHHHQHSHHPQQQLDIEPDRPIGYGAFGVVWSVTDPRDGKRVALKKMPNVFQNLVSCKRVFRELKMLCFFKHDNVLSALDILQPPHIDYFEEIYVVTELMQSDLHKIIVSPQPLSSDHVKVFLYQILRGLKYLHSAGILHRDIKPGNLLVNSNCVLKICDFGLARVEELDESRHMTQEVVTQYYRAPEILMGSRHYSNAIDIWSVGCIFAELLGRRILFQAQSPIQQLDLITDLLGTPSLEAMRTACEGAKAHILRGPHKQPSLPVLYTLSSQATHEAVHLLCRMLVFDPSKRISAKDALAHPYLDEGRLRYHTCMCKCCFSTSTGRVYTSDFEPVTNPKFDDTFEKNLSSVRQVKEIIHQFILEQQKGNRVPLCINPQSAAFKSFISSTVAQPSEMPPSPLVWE

[11] = Toxicity in C57BL/6 mouse assessed as mouse death at 50 mg/kg, po QD administered for 5 days measured after 24 hrs; type: organism-based; conditions: in vivo
[12] = Ratio of drug level in brain to plasma in CD-1 mouse at 10 mg/kg, po measured at 2 hrs; type: ADME, organism-based; conditions: brain and plasma, read-out: BPR
hERG (KCNH2) = hERG (KCNH2) (Homo sapiens, UniProt Q12809); assay: Displacement of [3H]dofetilide from recombinant human ERG at 10 uM after 60 mins by scintillation counting analysis; conditions: probe [3H]dofetilide
Chain of hERG (KCNH2) (Q12809 whole entry): as the sequence (Q12809 whole entry) above

[13] = Plasma concentration in NOD/SCID mouse at 25 mg/kg, po measured after 0.5 to 6 hrs; type: ADME, organism-based; conditions: in vivo
Cytochrome P450 3A4 = Cytochrome P450 3A4 (Homo sapiens, UniProt P08684); assay: Inhibition of CYP3A4 in human liver microsomes using testosterone as substrate incubated for 10 mins in presence of NADPH by LC/MS/MS analysis; type: ADME
Chain of Cytochrome P450 3A4 (P08684 whole entry): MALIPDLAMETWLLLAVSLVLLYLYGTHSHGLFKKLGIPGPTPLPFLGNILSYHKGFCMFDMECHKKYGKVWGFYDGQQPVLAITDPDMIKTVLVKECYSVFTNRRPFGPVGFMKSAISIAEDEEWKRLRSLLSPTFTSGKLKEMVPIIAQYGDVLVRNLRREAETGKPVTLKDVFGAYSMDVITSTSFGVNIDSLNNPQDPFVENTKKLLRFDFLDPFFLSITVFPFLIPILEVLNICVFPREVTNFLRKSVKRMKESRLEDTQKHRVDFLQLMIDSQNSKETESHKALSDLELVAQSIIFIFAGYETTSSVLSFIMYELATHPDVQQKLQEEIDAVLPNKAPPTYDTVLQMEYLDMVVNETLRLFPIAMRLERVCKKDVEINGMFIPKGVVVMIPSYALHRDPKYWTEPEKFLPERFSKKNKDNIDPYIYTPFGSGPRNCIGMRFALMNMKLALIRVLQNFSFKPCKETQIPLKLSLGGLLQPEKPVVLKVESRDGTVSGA

[14] = biological target: Alpha-1A adrenergic receptor (Rattus norvegicus, UniProt P43140); assay: Inhibition of rat adrenergic alpha1A receptor at 10 uM relative to control
[15] = Plasma concentration in CD-1 mouse at 1 mg/kg, iv measured at 2 hrs by LC/MS/MS method; type: ADME, organism-based
Cytochrome P450 2D6 = Cytochrome P450 2D6 (Homo sapiens, UniProt P10635); assay: Inhibition of CYP2D6 in human liver microsomes using dextromethorphan as substrate incubated for 20 mins in presence of NADPH by LC/MS/MS analysis; type: ADME
[16] = biological target: Activin receptor type-1-like (Homo sapiens, UniProt P37023); assay: Inhibition of human ALK1 using casein as substrate in presence of [gamma-33P]-ATP by radiometric hotspot assay
Cytochrome P450 2C19 = Cytochrome P450 2C19 (Homo sapiens, UniProt P33261); assay: Inhibition of CYP2C19 in human liver microsomes using mephenytoin as substrate incubated for 20 mins in presence of NADPH by LC/MS/MS analysis; type: ADME
Chain of Cytochrome P450 2C19 (P33261 whole entry): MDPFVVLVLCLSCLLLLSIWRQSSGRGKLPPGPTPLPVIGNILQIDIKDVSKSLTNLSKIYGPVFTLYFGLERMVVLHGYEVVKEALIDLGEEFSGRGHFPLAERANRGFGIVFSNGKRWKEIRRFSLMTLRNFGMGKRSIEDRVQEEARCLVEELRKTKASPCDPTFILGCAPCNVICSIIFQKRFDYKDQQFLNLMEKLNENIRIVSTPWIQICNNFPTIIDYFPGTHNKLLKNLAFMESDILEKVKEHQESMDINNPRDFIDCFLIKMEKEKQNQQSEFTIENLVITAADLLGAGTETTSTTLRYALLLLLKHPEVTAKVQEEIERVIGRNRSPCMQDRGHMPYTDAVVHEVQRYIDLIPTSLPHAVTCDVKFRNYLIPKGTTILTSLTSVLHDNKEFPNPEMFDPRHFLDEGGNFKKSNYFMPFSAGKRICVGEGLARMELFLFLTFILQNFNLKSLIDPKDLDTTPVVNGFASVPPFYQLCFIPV

[17] = biological target: Alpha-2A adrenergic receptor (Homo sapiens, UniProt P08913); assay: Inhibition of recombinant human adrenergic alpha2A receptor at 10 uM incubated for 60 mins by scintillation counting method relative to control
Chain of Alpha-2A adrenergic receptor (P08913 whole entry): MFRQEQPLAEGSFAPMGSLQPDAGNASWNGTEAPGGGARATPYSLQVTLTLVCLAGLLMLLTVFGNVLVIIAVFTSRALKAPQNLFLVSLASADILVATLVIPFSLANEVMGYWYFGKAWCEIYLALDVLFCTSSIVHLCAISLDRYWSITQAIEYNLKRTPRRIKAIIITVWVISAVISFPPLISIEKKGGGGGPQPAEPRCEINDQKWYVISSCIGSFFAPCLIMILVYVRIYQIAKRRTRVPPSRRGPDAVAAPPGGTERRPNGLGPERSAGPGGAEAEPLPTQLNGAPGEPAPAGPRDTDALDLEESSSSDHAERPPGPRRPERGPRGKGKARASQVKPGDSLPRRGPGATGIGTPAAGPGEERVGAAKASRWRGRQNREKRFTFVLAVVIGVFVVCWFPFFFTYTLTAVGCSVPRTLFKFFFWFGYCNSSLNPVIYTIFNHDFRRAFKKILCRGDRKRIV

[18] = Protein binding in CD-1 mouse brain at 1 mg/kg, iv measured at 2 hrs; type: ADME, organism-based; conditions: read-out: PB (converted)
[19] = Ratio of drug level in brain to plasma in CB17 SCID mouse at 25 mg/kg, po measured at 4 h; type: ADME, organism-based; conditions: read-out: BPR
[20] = biological target: Bone morphogenetic protein receptor type-1A (Homo sapiens, UniProt P36894); assay: Inhibition of human ALK3 using casein as substrate in presence of [gamma-33P]-ATP by radiometric hotspot assay
[21] = Toxicity in C57BL/6 mouse assessed as body weight loss at 50 mg/kg, po QD administered for 5 days measured after 24 hrs relative to control; type: organism-based; conditions: in vivo
[22] = Protein binding in CD-1 mouse plasma at 1 mg/kg, iv measured at 2 hrs by LC/MS/MS method; type: ADME, organism-based; conditions: read-out: PPB
Cannabinoid receptor 1 = Cannabinoid receptor 1 (Homo sapiens, UniProt P21554); assay: Inhibition of recombinant human CB1 incubated for 60 mins by scintillation counting method
Chain of Cannabinoid receptor 1 (P21554 whole entry): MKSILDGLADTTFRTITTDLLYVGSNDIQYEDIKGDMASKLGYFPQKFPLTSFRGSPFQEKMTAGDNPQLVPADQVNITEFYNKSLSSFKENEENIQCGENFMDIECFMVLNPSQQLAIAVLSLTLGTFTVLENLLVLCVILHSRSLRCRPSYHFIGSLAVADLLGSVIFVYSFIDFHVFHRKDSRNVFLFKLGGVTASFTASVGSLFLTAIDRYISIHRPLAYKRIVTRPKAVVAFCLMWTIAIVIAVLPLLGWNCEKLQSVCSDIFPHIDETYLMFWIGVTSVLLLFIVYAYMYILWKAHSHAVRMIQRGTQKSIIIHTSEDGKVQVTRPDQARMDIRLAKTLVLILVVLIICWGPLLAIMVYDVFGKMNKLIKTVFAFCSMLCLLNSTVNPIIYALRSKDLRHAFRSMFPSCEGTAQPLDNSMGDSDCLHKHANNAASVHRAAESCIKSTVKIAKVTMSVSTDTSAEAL

Compound `COc1cc(-c2cncc(-c3ccc(C4CCN(C)CC4)cc3)c2C)cc(OC)c1OC` has an IC50 (Activin receptor type-1 [1]) of 7 nM, an IC50 (TGF-beta receptor type-1 [2]) of 3330 nM and an IC50 [3] of 4800 nM. For the same compound, the IC50 (TGF-beta receptor type-1 [4]) was over 5000 nM and the IC50 (Activin receptor type-1 [5]) was 29 nM.

With `COc1cc(-c2cncc(-c3ccc(N4CCNCC4)cc3)c2C)cc(OC)c1OC` the Kp at 4 h [6] was 1.8, the Activity [7] was “Non-Toxic” and the Activity [8] was “Non-Toxic”. The Kp uu at 2 h [9] was 0.3, the IC50 [10] was 336 to 924 nM and the Activity [11] was “Non-Toxic”. The Kp at 2 h [12] was 0.9, the inhibition at 1 h, 10 µM (hERG (KCNH2)) was 69% and the concentration [13] was 7.46 µM. For the same compound, the IC50 (Cytochrome P450 3A4) was over 9000 nM, the inhibition at 10 µM [14] was 65% and the concentration at 2 h [15] was 0.156 µM. The IC50 (Cytochrome P450 2D6) was over 30000 nM, the IC50 [16] was 15 nM and the IC50 (Cytochrome P450 2C19) was over 30000 nM. The inhibition at 1 h, 10 µM [17] was 90%, the fraction unbound at 2 h [18] was 0.03 and the Kp at 4 h [19] was 1.5. For the same compound, the IC50 [20] was 428 nM, the Activity [21] was “Non-Toxic” and the fraction unbound at 2 h [22] was 0.09. It also gave an IC50 (Cannabinoid receptor 1) of 1720 nM.
